Results on 6 molecules are retold here after patent publication US6630472B1, “Compounds, pharmaceutical compositions, and methods for stimulating neuronal growth and elongation” (priority 1998, dated 2003).

pKi: −log10 of the molar value.

FKBP12, sequence (P62942 whole entry, species assumed): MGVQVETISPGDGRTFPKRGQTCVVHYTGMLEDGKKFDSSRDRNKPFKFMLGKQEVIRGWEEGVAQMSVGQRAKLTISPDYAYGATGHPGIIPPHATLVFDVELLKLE

One data set addresses FKBP12 (Homo sapiens, UniProt P62942). Description: rotamase inhibition assay (N-succinyl-Ala-Ala-Pro-Phe-p-nitroanilide, chymotrypsin-coupled). The following applies: apparent Ki; NI = no inhibition at the concentrations tested; read-out: Rotamase Ki(app). The class given is biochemical. The procedure:
In the rotamase inhibition assay, isomerization of an artificial substrate N-succinyl-Ala-Ala-Pro-Phe-p-nitroanilide is followed spectrophotometrically. The assay includes the cis form of the substrate, FKBP12, the compound being tested, and chymotrypsin. Chymotrypsin is able to cleave p-nitroaniline from the trans form of the substrate, but not from the cis form. Release of p-nitroaniline is measured spectrophotometrically. Using this assay, various amounts of the FKBP rotamase-inhibiting compounds of formula (I-a) or (I-b) were added to cis-N-succinyl-alanine-alanine-proline-phenylalanine-para-nitroaniline (Bachem, 3132 Kashiwa Street, Torrance, Calif. 90505) in the presence of FKBP12 and chymotrypsin. Spectrophotometric measurements of p-nitroaniline concentrations allowed estimation of the apparent Ki values, which are provided in Table 1 below.
The term pKi denotes −log10 of the Ki, conventionally taken in molar units. With `C=CCC(CC=C)C(=O)OC[C@@H]1CC[C@H](N2CC3CCCC(C2=O)N3C(=O)C(=O)c2cc(OC)c(OC)c(OC)c2)C1` (stereo partly drawn) [Compound 154], the pKi was 6.61.

Regarding `COc1cc(OC)cc(N2C=C3C4CCCC(C(=O)N3CC2=O)N4C(=O)C(=O)C(C)(C)c2ccccc2)c1` (stereo not drawn) [Compound 155], the pKi is 5.92.

With `COc1cc(OC)cc(N2C=C3C4CCCC(C(=O)N3CC2=O)N4C(=O)C(=O)C2(c3ccccc3)CCCC2)c1` (stereo not drawn) [Compound 156], the negative logarithm of the Ki (pKi) was 5.82.

Consider `COc1cc(C(=O)C(=O)N2C3CCCC2C(=O)N(CCc2ccccc2)CC3)cc(OC)c1OC` (stereo not drawn) [Compound 159, 1-(2-Oxo-3-phenethyl-3,10-diaza-bicyclo[4.3.1]dec-10-yl)-2-(3,4,5-trimethoxy-phenyl)-ethane-1,2-dione], for which the pKi was 6.12.

`COc1cc(C(=O)C(=O)N2C3C=CN(CCCCc4ccccc4)C(=O)C2CCC3)cc(OC)c1OC` (stereo not drawn) [Compound 162, 1-[2-Oxo-3-(4-phenyl-butyl)-3,10-diaza-bicyclo[4.3.1]dec-4-en-10-yl]-2-(3,4,5-trimethoxy-phenyl)-ethane-1,2-dione]: the pKi is 6.46.

Tested on in the next data set: not given
Assay: not given
Details: not given
For orientation: melting point means the temperature of the solid-liquid transition. Take `COc1cc(C(=O)C(=O)N2C3CCCC2C(=O)N(CCCCc2ccccc2)C3=O)cc(OC)c1OC`: the melting point is 101 to 103 °C.
